Laboratory results as given in article PMC10974622, “Hybrid Peptide-Alkoxyamine Drugs: A Strategy for the Development of a New Family of Antiplasmodial Drugs” (Molecules, 2024).
Where two headings read alike, the source gives them in different places. *1 amine or outer side, *2 acyl side, *3 side chain or, on linkers, in order; H or OH if unused. Where a SMILES comes first, the peptide text is derived from it. [ ]: non-standard residue; d: D form. The star is where a group is joined. Suc = O=C(CCC(=O)[*:2])[*:1]; Boc = CC(C)(C)OC(=O)*; OBn = c1ccc(CO*)cc1

Assays:
[1] = tested on: P. falciparum strain F32-ART (artemisinin-resistant); experiment: microbe, parasite or virus in culture; type: cell-based, Plasmodium falciparum; details: for Selectivity Index CC50/IC50: cytotoxicity (Vero cells)/antiplasmodial activity (F32-ART) ratio
From the text: The antimalarial activity of peptide-alkoxyamine hybrids was first evaluated in the in vitro antiproliferative test (IC50) using the artemisinin-resistant strain F32-ART (Table 2, Table S1). The roles of the N-substitution of the alkoxyamine moiety (TEMPO- or DBNO-based, for example, A3L/A8L, line 1/line 10), of the configuration (L or D of the peptide, A3L/A3D, line 1/line 2), of the N-protection of the peptide (A3L/A4L or A5L, line 1/ lines 3 and 5) were examined. According to standard rules in the malaria field, only molecules having IC50 values below 1 μM were considered active.
The F32-ART (artemisinin-resistant) strain and the F32-TEM (artemisinin-sensitive strain) were cultured according to Trager and Jensen in RPMI 1640 medium (Fisher Scientific, Illkirch, France) supplemented with 5% human serum (Etablissement français du Sang, Toulouse, France) at 2% hematocrit with type O human blood (Etablissement français du Sang, Toulouse, France), 37 °C, and 5% CO2 in a humidified atmosphere.
(§1) IC50 values corresponding to 50% inhibition of P. falciparum growth were determined by SYBR Green assay, and the assessment of cytotoxicity was performed on Vero cells (cell line from the kidney of a normal adult African green monkey), as previously published. The selectivity index corresponded to the cytotoxicity/activity ratio.

in vitro = type: cell-based, African green monkey; details: Cytotoxicity CC50
Description: as §1

Vero cells = details: cited from earlier work
[2] = Kinetic analysis of alkoxyamine bond homolysis by EPR; type: physicochemical; details: Equation (2), A = 2.4 · 10^14 s^−1
Description: The kinetic homolysis for peptide-alkoxyamines reported in Table 1 was recorded in EPR using two solvents, tert-butylbenzene (t-BuPh) or an n-propanol:water (1:1, v:v) mixture. The growth of nitroxide was recorded in the presence of an alkyl radical scavenger, i.e., O2 here, to suppress the back reaction (kc in Scheme 4), as already reported.
Homolysis rate constants kd are given by Equation (1) ([nitroxide]∞ = [alkoxyamine]0 = 0.1 mM), and the subsequent activation energy values Ea are given by Equation (2), as follows:(1) lnnitroxide∞−nitroxidet/nitroxide∞=−kd·t (2) Ea=−RTlnkd/A

[3] = tested on: F32-ART parasites at the quiescent stage; experiment: Quiescent-stage Survival Assay (QSA); type: cell-based, Plasmodium falciparum; details: 700 nM DHA, compound at 7 µM
Description: In this assay, parasites were exposed to dihydroartemisinin (DHA) alone to induce quiescence, prior the addition of the drug to be tested for 48 h, and then the parasite recrudescence was monitored over a maximum of 4 weeks. Activity against quiescent parasites was evidenced by a delay in recrudescence time over 6 days between the conditions “DHA 6 h / DHA 48 h” and “DHA 6 h/(DHA + molecule) 48 h”. Atovaquone was used as a positive control, and its activity against quiescent parasites was here confirmed, as expected, by an extended delay of 11 days in recrudescence time (Figure 5). By contrast, no activity of A8L and A3L against quiescent parasites was evidenced in the QSA, with similar recrudescence time between the conditions “DHA 6 h/DHA 48 h” and “DHA 6 h/(DHA + molecule) 48 h”. […] To understand this phenomenon, we explored the parasite response during treatment with these hybrid compounds.
The QSA was performed according to Reyser et al.. Briefly, ART-resistant ring-stage parasites at 3% parasitemia were exposed for 6 h to 700 nM of DHA (dihydroartemisinin) to induce quiescence or were exposed to no drugs (control condition). After that, the compound to be tested was added in both conditions […]. At the end of the treatment, the drugs were washed off with RPMI-1640, and parasites were replaced in drug-free conditions. Blood smears were performed to follow parasitemia until the day the cultures reached their starting parasitemia, defined as the recrudescence day. If after 30 days no parasite recrudescence was observed, then the data were censored. Data analysis was performed using Kaplan–Meier survival curves. Statistical significance was ascertained by using a log-rank (Mantel-Cox) test using GraphPad Prism 7 software (San Diego, CA, USA).

F32-ART parasites = experiment: Parasitemia monitoring and parasite morphology upon drug exposure, F32-ART ring-stage parasites; type: cell-based, Plasmodium falciparum; details: 48 h exposure
Description: The effect of hybrid compounds against Plasmodium parasites was assessed by the microscopic examination of parasite morphology upon drug exposure. For this purpose, parasites were synchronized at 0–4 h age by percoll-sorbitol treatment, 0–24 h age by sorbitol treatment, or at schizont stage by percoll treatment at the start of the experiment. Different treatment schedules were tested. In the case of multiple doses, parasite cultures were washed before each new drug addition.

[4] = strain F32-ART, SYBR Green assay, mean ± SEM of 3 to 6 experiments, read-out: Antiplasmodial Activity IC50
[5] = Plasmodium falciparum, F32, read-out: Antiplasmodial Activity IC50, strain F32-ART, SYBR Green assay, mean ± SEM of 3 to 6 experiments
[6] = read-out: Antiplasmodial Activity IC50, strain F32-ART, SYBR Green assay, mean ± SEM of 3 to 6 experiments

CC(C)[C@@H](NC(=O)[C@H](N)Cc1ccccc1)C(=O)N[C@H](Cc1ccccc1)C(=O)OCc1ccccc1 [P8D] (H-[dF]-[dV]-[dF]-OBn)
IC50 [1, 4]: > 50 µM
CC50 (in vitro; African green monkey): > 50 µM

CC(ON(C(C)(C)C)C(C)(C)C)c1ccc(NC(=O)[C@@H](Cc2ccccc2)NC(=O)[C@H](NC(=O)[C@H](N)Cc2ccccc2)C(C)C)cc1 (stereo partly drawn) [AW230]
IC50 [1, 5]: 3.73 ± 0.26 µM
CC50 (in vitro; African green monkey): 9 ± 1.2 µM

CC(C)[C@@H](NC(=O)[C@H](N)Cc1ccccc1)C(=O)N[C@H](Cc1ccccc1)C(=O)O [P11D] (H-[dF]-[dV]-[dF]-OH; N-terminus and C-terminus assumed)
CC50 (in vitro; African green monkey): > 50 µM

CC(ON1C(C)(C)CCCC1(C)C)c1ccc(NC(=O)[C@H](Cc2ccccc2)NC(=O)[C@@H](NC(=O)[C@H](Cc2ccccc2)NC(=O)CCC(=O)OCc2ccccc2)C(C)C)cc1 (stereo partly drawn) [A6L]
CC50 (Vero cells): > 50 µM
IC50 [1, 5]: 7 µM
Selectivity Index CC50/IC50 [1]: >6.9
IC50 [1, 6]: 7.2 µM

CCc1ccc(NC(=O)[C@@H](Cc2ccccc2)NC(=O)[C@H](NC(=O)[C@H](N)Cc2ccccc2)C(C)C)cc1 [P22D]
CC50 (in vitro): 11 ± 1.6 µM

CC(ON1C(C)(C)CCCC1(C)C)c1ccccc1 (stereo not drawn) [compound 4, reference compound]
IC50 [1, 5]: > 10 µM

CCc1ccc(NC(=O)[C@H](Cc2ccccc2)NC(=O)[C@@H](NC(=O)[C@H](Cc2ccccc2)NC(=O)CCC(=O)O)C(C)C)cc1 [P24L]
CC50 (Vero cells): > 50 µM
IC50 [1, 4]: > 10 µM

CC(ON1C(C)(C)CCCC1(C)C)c1ccc(NC(=O)[C@@H](Cc2ccccc2)NC(=O)[C@H](NC(=O)[C@H](N)Cc2ccccc2)C(C)C)cc1 (stereo partly drawn) [A5D]
Selectivity Index CC50/IC50 [1]: 1.0
IC50 [1, 6]: 2.25 ± 0.17 µM

CC(ON(C(C)(C)C)C(C)(C)C)c1ccc(NC(=O)[C@@H](Cc2ccccc2)NC(=O)[C@H](NC(=O)[C@@H](Cc2ccccc2)NC(=O)OC(C)(C)C)C(C)C)cc1 (stereo partly drawn) [A8D]
IC50 [1, 5]: 50 µM
activation energy Ea ([2]; in t-BuPh): 28.94 kcal/mol
activation energy Ea ([2]; in water/n-PrOH 1/1 v/v): 28.32 kcal/mol
CC50 (in vitro; African green monkey): > 50 µM

CC(C)[C@H](NC(=O)[C@H](Cc1ccccc1)NC(=O)OC(C)(C)C)C(=O)N[C@@H](Cc1ccccc1)C(=O)OCc1ccccc1 [P6L] (Boc-Phe-Val-Phe-OBn)
IC50 [1, 4]: > 50 µM
CC50 (in vitro; African green monkey): > 50 µM

CCc1ccc(NC(=O)[C@H](Cc2ccccc2)NC(=O)[C@@H](NC(=O)[C@H](Cc2ccccc2)NC(=O)OC(C)(C)C)C(C)C)cc1 [P21L]
CC50 (Vero cells): > 50 µM
IC50 [1, 4]: > 50 µM

CC(C)[C@H](NC(=O)[C@H](Cc1ccccc1)NC(=O)CCC(=O)OCc1ccccc1)C(=O)N[C@@H](Cc1ccccc1)C(=O)OCc1ccccc1 [P9L, N-(Bn)succinyl-L-Phe-L-Val-L-Phe–OBn]
IC50 [1, 4]: > 50 µM
CC50 (in vitro; African green monkey): > 50 µM

CCc1ccc(NC(=O)[C@H](Cc2ccccc2)NC(=O)[C@@H](NC(=O)[C@H](Cc2ccccc2)NC(=O)CCC(=O)OCc2ccccc2)C(C)C)cc1 [P23L]
CC50 (Vero cells): > 50 µM
IC50 [1, 4]: > 10 µM

CCc1ccc(NC(=O)[C@H](Cc2ccccc2)NC(=O)[C@@H](NC(=O)[C@@H](N)Cc2ccccc2)C(C)C)cc1 [P22L]
CC50 (Vero cells): > 50 µM
IC50 [1, 4]: > 10 µM

CC(ON(C(C)(C)C)C(C)(C)C)c1ccc(NC(=O)[C@H](Cc2ccccc2)NC(=O)OC(C)(C)C)cc1 (stereo partly drawn) [A9L]
activation energy Ea ([2]; in t-BuPh): 28.8 kcal/mol
activation energy Ea ([2]; in water/n-PrOH 1/1 v/v): 28.42 kcal/mol

CC(C)[C@H](NC(=O)[C@@H](N)Cc1ccccc1)C(=O)N[C@@H](Cc1ccccc1)C(=O)O [P11L] (H-Phe-Val-Phe-OH)
CC50 (Vero cells): > 50 µM
IC50 [1, 4]: > 10 µM

CC(C)[C@H](NC(=O)[C@H](Cc1ccccc1)NC(=O)OC(C)(C)C)C(=O)N[C@@H](Cc1ccccc1)C(=O)O [P7L, Boc-L-Phe-L-Val-L-Phe–OH] (Boc-Phe-Val-Phe-OH)
CC50 (Vero cells): > 50 µM
IC50 [1, 4]: > 50 µM

CC(ON1C(C)(C)CCCC1(C)C)c1ccc(NC(=O)[C@@H](Cc2ccccc2)NC(=O)[C@H](NC(=O)[C@@H](Cc2ccccc2)NC(=O)OC(C)(C)C)C(C)C)cc1 (stereo partly drawn) [A3D]
IC50 [1, 5]: > 50 µM
CC50 (in vitro; African green monkey): > 50 µM

CC(C)[C@H](NC(=O)[C@H](Cc1ccccc1)NC(=O)CCC(=O)O)C(=O)N[C@@H](Cc1ccccc1)C(=O)O [P10L] (Suc-Phe-Val-Phe-OH)
CC50 (Vero cells): > 50 µM
IC50 [1, 4]: > 50 µM

CC(C)[C@H](NC(=O)[C@@H](N)Cc1ccccc1)C(=O)N[C@@H](Cc1ccccc1)C(=O)OCc1ccccc1 [P8L] (H-Phe-Val-Phe-OBn)
IC50 [1, 4]: > 50 µM
CC50 (in vitro; African green monkey): > 50 µM

C[C@@H]1CC[C@H]2[C@@H](C)C(=O)O[C@@H]3O[C@@]4(C)CC[C@@H]1[C@]32OO4 [ART, Artemisinin, reference compound]
IC50 [1, 5]: 0.031 ± 0.006 µM
Selectivity Index CC50/IC50 [1]: >1500
CC50 (in vitro; African green monkey): > 50 µM

CC(C)[C@H](NC(=O)[C@H](Cc1ccccc1)NC(=O)CCC(=O)OCc1ccccc1)C(=O)N[C@@H](Cc1ccccc1)C(=O)O [P12L]
CC50 (Vero cells): > 50 µM
IC50 [1, 4]: > 10 µM

O=C1C(O)=C([C@H]2CC[C@H](c3ccc(Cl)cc3)CC2)C(=O)c2ccccc21 [Atovaquone, reference compound]
delay in recrudescence time between DHA 6 h/DHA 48 h and DHA 6 h/(DHA + molecule) 48 h [3]: 11 days

C[C@H]1[C@@H](O)O[C@@H]2O[C@@]3(C)CC[C@H]4[C@H](C)CC[C@@H]1[C@@]24OO3 [DHA, dihydroartemisinin, reference compound]
effect on parasitemia and parasite cell cycle (F32-ART parasites): high parasitemia decrease

CC(ON(C(C)(C)C)C(C)(C)C)c1ccc(NC(=O)[C@@H](Cc2ccccc2)NC(=O)[C@@H](NC(=O)[C@H](Cc2ccccc2)NC(=O)OC(C)(C)C)C(C)C)cc1 (stereo partly drawn) [A8DL]
IC50 [1, 5]: 0.87 ± 0.04 µM
Selectivity Index CC50/IC50 [1]: >57
activation energy Ea ([2]; in t-BuPh): 28.51 kcal/mol
activation energy Ea ([2]; in water/n-PrOH 1/1 v/v): 28.3 kcal/mol
CC50 (in vitro; African green monkey): > 50 µM

CC(ON(C(C)(C)C)C(C)(C)C)c1ccc(NC(=O)[C@@H](Cc2ccccc2)NC(=O)OC(C)(C)C)cc1 (stereo partly drawn) [A9D]
activation energy Ea ([2]; in t-BuPh): 28.87 kcal/mol
activation energy Ea ([2]; in water/n-PrOH 1/1 v/v): 28.42 kcal/mol

CC(C)[C@H](NC(=O)[C@@H](N)Cc1ccccc1)C(=O)N[C@@H](Cc1ccccc1)C(=O)O [P18L] (H-Phe-Val-Phe-OH)
CC50 (Vero cells): > 25 µM
IC50 [1, 4]: > 5 µM

CC(C)[C@@H](NC(=O)[C@@H](Cc1ccccc1)NC(=O)OC(C)(C)C)C(=O)N[C@H](Cc1ccccc1)C(=O)O [P7D] (Boc-[dF]-[dV]-[dF]-OH)
IC50 [1, 4]: > 10 µM
CC50 (in vitro; African green monkey): > 50 µM

CCc1ccc(NC(=O)[C@@H](Cc2ccccc2)NC(=O)[C@H](NC(=O)[C@@H](Cc2ccccc2)NC(=O)OC(C)(C)C)C(C)C)cc1 [P21D]
CC50 (Vero cells): > 50 µM
IC50 [1, 4]: > 50 µM

CC(C)[C@@H](NC(=O)[C@@H](Cc1ccccc1)NC(=O)OC(C)(C)C)C(=O)N[C@H](Cc1ccccc1)C(=O)OCc1ccccc1 [P6D, Boc-D-Phe-D-Val-D-Phe–OBn] (Boc-[dF]-[dV]-[dF]-OBn)
IC50 [1, 4]: > 50 µM
CC50 (in vitro; African green monkey): 3.2 ± 0.2 µM
